Experimental findings from US8431581B2, “Imidazopyrimidines and uses thereof” (priority 2008, dated 2013) are described below.

This assay deals with HIV-1 reporter virus, integrase Q148H/G140S (QHGS). Nature of the assay: Luciferase reporter virus infectivity assay, QHGS mutant. The assay is classed as cell-based. As to conditions: Human immunodeficiency virus 1, HEK-293T, read-out: EC50 against the QHGS mutant. An excerpt: Infectivity assays using reporter viruses derived from lentiviral vectors capable of a single round of infection were used to determine the activity (EC50) of compounds. The DNA used to generate viruses for infection was the full-length HIV-1 genome which had been envelope-deleted. In addition, a reporter gene (the firefly luciferase gene from Photinus pyralis) was cloned into the nef region of the HIV backbone for ease of assay readout. […]. Culture supernatants containing VSV-G pseudotyped virions were harvested 64 h post transfection, clarified by centrifugation to remove cell debris, and frozen at −70° C. until use.
HIV integrase was mutated within a shuttle vector (pGEM) containing the majority of the HIV-1 gag and pol sequence using site-directed mutagenesis to generate sequences that are known to confer resistance to published integrase inhibitors. These include but are not limited to mutations such as Q148H/G140S (in tables 2 and 3 # QHGS), N155H/E92Q (in table 2 # NHEQ), F121Y/T124K (in table 2 FYTK), Y143R (in table 2 # Y143R) and the triple mutant Q148K/G140A/E138A. (in table 2 # QKGAEA). The mutated integrase coding region within the shuttle vector was sequence verified, and then exchanged for the wild-type (WT) coding sequence in the reporter virus DNA backbone.
293T cells were plated out at 12000 cells per well in CellView 96-well cell culture plates (Invitrogen) 16 h prior to compound addition. Compounds were preincubated with cells for 4 h at 37° C. prior to the addition of virus sufficient to generate approximately 10000 Luciferase light units (as measured by the Victor Wallace luminometer) upon assaying using the Bright-Glo™ reagent (Promega) according to the manufacturer's instructions at 48 h post infection.
A general note: A reporter such as luciferase makes a cellular process visible.
As a reminder, the EC50 is the concentration needed to bring the measured effect to its halfway point. Turning to `CC1CCN(C(=O)Cn2ccn3c(=O)c(O)c(-c4ncc(Cc5ccc(F)cc5)s4)nc23)CC1` [Example 157, 7-[5-(4-Fluoro-benzyl)-thiazol-2-yl]-6-hydroxy-1-[2-(4-methyl-piperidin-1-yl)-2-oxo-ethyl]-1H-imidazo[1,2-a]pyrimidin-5-one], the half-maximal effective concentration (EC50) was 500 to 1000 nM.

Consider `CC1CN(C(=O)C(C)n2ccn3c(=O)c(O)c(-c4ncc(Cc5ccc(F)cc5)s4)nc23)CC(C)O1` (stereo not drawn) [Example 184, 1-[2-(2,6-Dimethyl-morpholin-4-yl)-1-methyl-2-oxo-ethyl]-7-[5-(4-fluoro-benzyl)-thiazol-2-yl]-6-hydroxy-1H-imidazo[1,2-a]pyrimidin-5-one], for which the EC50 was 1000 to 10000 nM.

`CC1CC(C)CN(C(=O)Cn2cc(N3CCCS3(=O)=O)n3c(=O)c(O)c(C(=O)NCc4ccc(Cl)c(Cl)c4)nc23)C1` (stereo not drawn) [Example 190, 1-[2-(3,5-Dimethyl-piperidin-1-yl)-2-oxo-ethyl]-3-(1,1-dioxo-1lambda*6*-isothiazolidin-2-yl)-6-hydroxy-5-oxo-1,5-dihydro-imidazo[1,2-a]pyrimidine-7-carboxylic acid 3,4-dichloro-benzylamide]: the EC50 was in the range of 500 to 1000 nM.

Consider `CC1CC(C)CN(C(=O)Cn2cc(CS(C)(=O)=O)n3c(=O)c(O)c(C(=O)NCc4ccc(F)cc4S(=O)(=O)N(C)C)nc23)C1` (stereo not drawn) [Example 194, 1-[2-(3,5-Dimethyl-piperidin-1-yl)-2-oxo-ethyl]-6-hydroxy-3-methanesulfonylmethyl-5-oxo-1,5-dihydro-imidazo[1,2-a]pyrimidine-7-carboxylic acid 2-dimethylsulfamoyl-4-fluoro-benzylamide], for which the EC50 was < 500 nM.

In the case of `O=C(NCc1ccc(Cl)c(Cl)c1)c1nc2n(CC(=O)N3CCCCC3)cc(CN3CCOCC3)n2c(=O)c1O` [Example 181, 6-Hydroxy-3-morpholin-4-ylmethyl-5-oxo-1-(2-oxo-2-piperidin-1-yl-ethyl)-1,5-dihydro-imidazo[1,2-a]pyrimidine-7-carboxylic acid 3,4-dichloro-benzylamide], the EC50 lay in the range of 500 to 1000 nM.

Turning to `C[C@H]1CN(C(=O)Cn2ccn3c(=O)c(O)c(-c4ncc(Cc5ccc(F)cc5)s4)nc23)C[C@H](C)O1` [Example 182, 1-[2-((2S,6S)-2,6-Dimethyl-morpholin-4-yl)-2-oxo-ethyl]-7-[5-(4-fluoro-benzyl)-thiazol-2-yl]-6-hydroxy-1H-imidazo[1,2-a]pyrimidin-5-one], the EC50 was < 500 nM.

Consider `C[C@@H]1CN(C(=O)Cn2ccn3c(=O)c(O)c(-c4ncc(Cc5ccc(F)cc5S(C)(=O)=O)s4)nc23)C[C@@H](C)O1` (stereo in doubt) [Example 138, 1-[2-(2,6-Dimethyl-morpholin-4-yl)-2-oxo-ethyl]-7-[5-(4-fluoro-2-methanesulfonyl-benzyl)-thiazol-2-yl]-6-hydroxy-1H-imidazo[1,2-a]pyrimidin-5-one], for which the EC50 was in the range of 500 to 1000 nM.

For `COC(=O)c1cc(F)ccc1Cc1cnc(-c2nc3n(CC(=O)N4C[C@H](C)O[C@@H](C)C4)ccn3c(=O)c2O)s1` (stereo in doubt) [Example 58, 2-(2-{1-[2-(2,6-Dimethyl-morpholin-4-yl)-2-oxo-ethyl]-6-hydroxy-5-oxo-1,5-dihydro-imidazo[1,2-a]pyrimidin-7-yl}-thiazol-5-ylmethyl)-5-fluoro-benzoic acid methyl ester], the EC50 lay in the range of 500 to 1000 nM.

Regarding `CN(C)S(=O)(=O)c1cc(F)ccc1CNC(=O)c1nc2n(CC(=O)N3CCCCC3)cc(N3CCCS3(=O)=O)n2c(=O)c1O` [Example 188, 3-(1,1-Dioxo-1lambda*6*-isothiazolidin-2-yl)-6-hydroxy-5-oxo-1-(2-oxo-2-piperidin-1-yl-ethyl)-1,5-dihydro-imidazo[1,2-a]pyrimidine-7-carboxylic acid 2-dimethylsulfamoyl-4-fluoro-benzylamide], the EC50 was < 500 nM.
